# From ChEMBL document CHEMBL1126968, “Synthesis and biological evaluation of some 25,26-epoxy-1,24-dihydroxyvitamin D3 analogues” (1993)
# What was measured:
# HL-60 = assay: Percent activity for its capability to induce differentiation of human promyeloid leukemia HL-60 cells; assay type: functional; set-up: concentration or dose not given beside the values
# [1] = biological target: T1, Vitamin D3 receptor (Sus scrofa) (UniProt A3RGC1); assay: Inhibition of [3H]1-alpha,25-dihydroxy-vitamin D3 binding to porcine intestinal mucosal vitamin D receptor
# T1 sequence (whole entry): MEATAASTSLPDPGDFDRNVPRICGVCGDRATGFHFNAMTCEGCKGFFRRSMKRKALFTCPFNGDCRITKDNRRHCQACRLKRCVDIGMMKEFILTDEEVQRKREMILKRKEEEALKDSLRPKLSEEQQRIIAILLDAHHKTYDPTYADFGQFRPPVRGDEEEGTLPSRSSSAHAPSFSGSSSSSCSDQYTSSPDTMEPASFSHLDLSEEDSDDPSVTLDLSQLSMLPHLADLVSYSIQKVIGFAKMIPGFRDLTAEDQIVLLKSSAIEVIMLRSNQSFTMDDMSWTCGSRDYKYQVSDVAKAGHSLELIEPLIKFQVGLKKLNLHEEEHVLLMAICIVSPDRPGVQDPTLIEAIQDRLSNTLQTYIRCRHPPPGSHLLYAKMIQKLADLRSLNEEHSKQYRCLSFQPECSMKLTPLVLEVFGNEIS
SMILES,Receptor binding [1],Activity (HL-60)
C=C1/C(=C\C=C2/CCC[C@]3(C)[C@@H]([C@H](C)CCCC4(C)CO4)CC[C@@H]23)C[C@@H](O)C[C@@H]1O (some centres undefined),27,37%
C=C1/C(=C\C=C2/CCC[C@]3(C)[C@@H]([C@H](C)CC[C@@H](O)[C@@]4(C)CO4)CC[C@@H]23)C[C@@H](O)C[C@@H]1O,20,12%
C=C1/C(=C\C=C2/CCC[C@]3(C)[C@@H]([C@H](C)CC[C@H](O)[C@@]4(C)CO4)CC[C@@H]23)C[C@@H](O)C[C@@H]1O,1,44%
C=C1/C(=C\C=C2/CCC[C@]3(C)[C@@H]([C@H](C)/C=C/[C@H](O)[C@]4(C)CO4)CC[C@@H]23)C[C@@H](O)C[C@@H]1O,8,30%

# Second part, led by results:
Receptor binding [1],SMILES,Activity (HL-60)
5,C=C1/C(=C\C=C2/CCC[C@]3(C)[C@@H]([C@H](C)CC[C@H](O)[C@]4(C)CO4)CC[C@@H]23)C[C@@H](O)C[C@@H]1O,7%
8,C=C1/C(=C\C=C2/CCC[C@]3(C)[C@@H]([C@H](C)/C=C/[C@@H](O)[C@@]4(C)CO4)CC[C@@H]23)C[C@@H](O)C[C@@H]1O,30%
9,C=C1/C(=C\C=C2/CCC[C@]3(C)[C@@H]([C@H](C)CC[C@@H](O)[C@]4(C)CO4)CC[C@@H]23)C[C@@H](O)C[C@@H]1O,33%
